These are literature values, as cited in US5683715A, “Taxane-containing phosphatidylcholine liposomes” (The Liposome Company, Inc., priority 1995, dated 1997).

Series [1] relates to ovarian and breast cancers, malignant melanoma, colon cancer, leukemias and lung cancer. Conditions: literature.
In a further series the test system is tubulin. To be noted: Schiff and Horowitz 1980.

`CC(=O)O[C@H]1C(=O)[C@@]2(C)[C@H]([C@H](OC(=O)c3ccccc3)[C@]3(O)C[C@H](OC(=O)[C@H](O)[C@@H](NC(=O)c4ccccc4)c4ccccc4)C(C)=C1C3(C)C)[C@]1(OC(C)=O)CO[C@@H]1C[C@@H]2O` [Paclitaxel]: the Activity against cancers result in series [1] is “activity against ovarian and breast cancers, as well as against malignant melanoma, colon cancer, leukemias and lung cancer”. For the same compound, in the series with tubulin, the “Concentrations of optimal effect on polymerization and stabilization of microtubules” value is “near stoichiometric equivalence with tubulin dimers”.
